From ChEMBL document CHEMBL3045678, “Synthesis of Some New Antimicrobial Thiadiazolyl and Oxadiazolyl Quinoline Derivatives” (2005)
Values after ≈ are worked out from the molar mass of the structure shown. Active and inactive are the calls of the source. The rule behind the calls is not given here.

Columns and labels:
Assay type in all cases: functional
Escherichia coli = assay: Antimicrobial activity against Escherichia coli NCTC 10418 at 1 mg/ml after 24 hr by cup diffusion technique; details: for zone of inhibition at 1000 µg/mL: NCTC 10418, 24 h, read-out: DIZ
Staphylococcus aureus [1] = assay: Antimicrobial activity against Staphylococcus aureus ATCC 6538p at 1 mg/ml after 24 hr by cup diffusion technique; details: for zone of inhibition at 1000 µg/mL: read-out: DIZ
Candida albicans [2] = assay: Antimicrobial activity against Candida albicans ATCC 10231 at 1 mg/ml after 24 hr by cup diffusion technique; details: for zone of inhibition at 1000 µg/mL: ATCC 10231, 24 h, read-out: DIZ
Pseudomonas aeruginosa [3] = assay: Antimicrobial activity against Pseudomonas aeruginosa ATCC 9027 at 1 mg/ml after 24 hr by cup diffusion technique; details: for zone of inhibition at 1000 µg/mL: ATCC 9027, 24 h, read-out: DIZ
Pseudomonas aeruginosa [4] = assay: Antimicrobial activity against Pseudomonas aeruginosa ATCC 9027 after 24 hr by two-fold dilution method; details: ATCC 9027, 24 h
Candida albicans [5] = assay: Antimicrobial activity against Candida albicans ATCC 10231 after 48 hr by two-fold dilution method
Staphylococcus aureus [6] = assay: Antimicrobial activity against Staphylococcus aureus ATCC 6538p after 24 hr by two-fold dilution method

| Molecule | zone of inhibition at 1000 µg/mL (Escherichia coli) | zone of inhibition at 1000 µg/mL (Staphylococcus aureus [1]) | zone of inhibition at 1000 µg/mL (Candida albicans [2]) | zone of inhibition at 1000 µg/mL (Pseudomonas aeruginosa [3]) | also measured |
| --- | --- | --- | --- | --- | --- |
| CSc1nnc(-c2cc(-c3ccccc3)nc3ccccc23)o1 | 18 mm | 12 mm | 18 mm | 13 mm | – |
| CCSc1nnc(NC(=O)c2cc(-c3ccccc3)nc3ccccc23)s1 | 19 mm | 15 mm | 18 mm | 20 mm | MBC (Pseudomonas aeruginosa [4]): 500 mg/L (≈ 1270 µM); MIC (Pseudomonas aeruginosa [4]): 62.5 mg/L (≈ 159 µM) |
| CSc1nnc(-c2cc(C)nc3ccccc23)o1 | 17 mm | 17 mm | 26 mm | 13 mm | MBC (Candida albicans [5]; ATCC 10231, 48 h): 125 mg/L (≈ 486 µM); MIC (Candida albicans [5]; ATCC 10231, 48 h): 125 mg/L (≈ 486 µM) |
| CCS(=O)(=O)c1nnc(-c2cc(C)nc3ccccc23)o1 | 19 mm | 16 mm | 24 mm | 16 mm | MBC (Candida albicans [5]; ATCC 10231, 48 h): 125 mg/L (≈ 412 µM); MIC (Candida albicans [5]; ATCC 10231, 48 h): 125 mg/L (≈ 412 µM) |
| Cc1cc(C(=O)Nc2nnc(S(=O)(=O)Cc3ccccc3)s2)c2ccccc2n1 | 19 mm | 28 mm | 19 mm | 13 mm | MBC (Staphylococcus aureus [6]): > 500 mg/L; MIC (Staphylococcus aureus [6]): 62.5 mg/L (≈ 147 µM) |
| CCS(=O)(=O)c1nnc(NC(=O)c2cc(C)nc3ccccc23)s1 | 17 mm | 13 mm | 18 mm | 13 mm | – |
| CCSc1nnc(NC(=O)c2ccnc3ccccc23)s1 | 17 mm | 15 mm | 17 mm | 14 mm | – |
| CCSc1nnc(NC(=O)c2cc(C)nc3ccccc23)s1 | 18 mm | 17 mm | 18 mm | 14 mm | – |
| CS(=O)(=O)c1nnc(NC(=O)c2ccnc3ccccc23)s1 | 18 mm | 13 mm | 19 mm | 13 mm | – |
| CCSc1nnc(-c2cc(C)nc3ccccc23)o1 | 19 mm | 15 mm | 19 mm | – | diameter of the inhibition zone (DIZ) (Pseudomonas aeruginosa [3]): inactive |
| CCS(=O)(=O)c1nnc(-c2cc(-c3ccccc3)nc3ccccc23)o1 | 17 mm | 18 mm | 18 mm | 13 mm | – |
| O=C(Nc1nnc(SCc2ccccc2)s1)c1cc(-c2ccccc2)nc2ccccc12 | 16 mm | 13 mm | 18 mm | 15 mm | – |
| NYSTATIN | – | – | – | – | diameter of the inhibition zone (DIZ) (Escherichia coli): inactive; MIC (Candida albicans [5]): 25 mg/L; diameter of the inhibition zone (DIZ) (Staphylococcus aureus [1]): inactive; inhibition zone (IZ) (Candida albicans [2]): 37 mm; diameter of the inhibition zone (DIZ) (Pseudomonas aeruginosa [3]): inactive |
| CS(=O)(=O)c1nnc(-c2cc(-c3ccccc3)nc3ccccc23)o1 | 18 mm | 20 mm | 18 mm | 15 mm | – |
| Cc1cc(C(=O)Nc2nnc(SCc3ccccc3)s2)c2ccccc2n1 | 18 mm | 15 mm | 24 mm | 17 mm | MBC (Candida albicans [5]; ATCC 10231, 48 h): 250 mg/L (≈ 637 µM); MIC (Candida albicans [5]; ATCC 10231, 48 h): 250 mg/L (≈ 637 µM) |
| CCSc1nnc(-c2cc(-c3ccccc3)nc3ccccc23)o1 | 18 mm | – | 19 mm | 15 mm | diameter of the inhibition zone (DIZ) (Staphylococcus aureus [1]): inactive |

| Molecule | zone of inhibition at 1000 µg/mL (Escherichia coli) | zone of inhibition at 1000 µg/mL (Staphylococcus aureus [1]) | zone of inhibition at 1000 µg/mL (Candida albicans [2]) | zone of inhibition at 1000 µg/mL (Pseudomonas aeruginosa [3]) | also measured |
| --- | --- | --- | --- | --- | --- |
| O=C(Nc1nnc(SCc2ccccc2)s1)c1ccnc2ccccc12 | 18 mm | 15 mm | 19 mm | 17 mm | – |
| O=C(Nc1nnc(S(=O)(=O)Cc2ccccc2)s1)c1cc(-c2ccccc2)nc2ccccc12 | 19 mm | 20 mm | 18 mm | 14 mm | MBC (Staphylococcus aureus [6]): 500 mg/L (≈ 1030 µM); MIC (Staphylococcus aureus [6]): 500 mg/L (≈ 1030 µM) |
| Cc1cc(-c2nnc(SCc3ccccc3)o2)c2ccccc2n1 | 18 mm | 13 mm | 19 mm | – | diameter of the inhibition zone (DIZ) (Pseudomonas aeruginosa [3]): inactive |
| Cc1cc(-c2n[nH]c(=S)o2)c2ccccc2n1 | 18 mm | 20 mm | 18 mm | 12 mm | MBC (Staphylococcus aureus [6]): > 500 mg/L; MIC (Staphylococcus aureus [6]): 62.5 mg/L (≈ 257 µM) |
| CSc1nnc(NC(=O)c2cc(-c3ccccc3)nc3ccccc23)s1 | 16 mm | 15 mm | 18 mm | 20 mm | MBC (Pseudomonas aeruginosa [4]): > 500 mg/L; MIC (Pseudomonas aeruginosa [4]): 250 mg/L (≈ 661 µM) |
| CCS(=O)(=O)c1nnc(NC(=O)c2cc(-c3ccccc3)nc3ccccc23)s1 | 19 mm | 31 mm | 19 mm | 15 mm | MBC (Staphylococcus aureus [6]): 125 mg/L (≈ 294 µM); MIC (Staphylococcus aureus [6]): 125 mg/L (≈ 294 µM) |
| Cc1cc(-c2nnc(S(=O)(=O)Cc3ccccc3)o2)c2ccccc2n1 | 18 mm | 16 mm | 19 mm | – | diameter of the inhibition zone (DIZ) (Pseudomonas aeruginosa [3]): inactive |
| CS(=O)(=O)c1nnc(NC(=O)c2cc(-c3ccccc3)nc3ccccc23)s1 | 18 mm | 30 mm | 19 mm | 15 mm | MBC (Staphylococcus aureus [6]): 31.2 mg/L (≈ 76.1 µM); MIC (Staphylococcus aureus [6]): 31.2 mg/L (≈ 76.1 µM) |
| O=C(O)c1cn(C2CC2)c2cc(N3CCNCC3)c(F)cc2c1=O [CIPROFLOXACIN] | 30 mm | 25 mm | – | 40 mm | diameter of the inhibition zone (DIZ) (Candida albicans [2]): inactive; MIC (Pseudomonas aeruginosa [4]): 4 mg/L (≈ 12.1 µM); MIC (Staphylococcus aureus [6]): 2 mg/L (≈ 6.04 µM) |
| CCS(=O)(=O)c1nnc(NC(=O)c2ccnc3ccccc23)s1 | 19 mm | 20 mm | 19 mm | 20 mm | MBC (Pseudomonas aeruginosa [4]): 125 mg/L (≈ 359 µM); MIC (Pseudomonas aeruginosa [4]): 125 mg/L (≈ 359 µM); MBC (Staphylococcus aureus [6]): > 500 mg/L; MIC (Staphylococcus aureus [6]): 125 mg/L (≈ 359 µM) |
| c1ccc(CSc2nnc(-c3cc(-c4ccccc4)nc4ccccc34)o2)cc1 | 18 mm | 13 mm | 18 mm | – | diameter of the inhibition zone (DIZ) (Pseudomonas aeruginosa [3]): inactive |
| CSc1nnc(NC(=O)c2ccnc3ccccc23)s1 | 18 mm | 17 mm | 19 mm | 15 mm | – |
| O=C(Nc1nnc(S(=O)(=O)Cc2ccccc2)s1)c1ccnc2ccccc12 | 18 mm | 27 mm | 19 mm | 20 mm | MBC (Pseudomonas aeruginosa [4]): > 500 mg/L; MIC (Pseudomonas aeruginosa [4]): 62.5 mg/L (≈ 152 µM); MBC (Staphylococcus aureus [6]): 500 mg/L (≈ 1220 µM); MIC (Staphylococcus aureus [6]): 125 mg/L (≈ 305 µM) |
| O=S(=O)(Cc1ccccc1)c1nnc(-c2cc(-c3ccccc3)nc3ccccc23)o1 | 18 mm | 12 mm | 19 mm | – | diameter of the inhibition zone (DIZ) (Pseudomonas aeruginosa [3]): inactive |
| Cc1cc(-c2nnc(S(C)(=O)=O)o2)c2ccccc2n1 | 18 mm | 19 mm | 27 mm | 13 mm | MBC (Candida albicans [5]; ATCC 10231, 48 h): 125 mg/L (≈ 432 µM); MIC (Candida albicans [5]; ATCC 10231, 48 h): 31.2 mg/L (≈ 108 µM) |
